Measured values as given in ChEMBL document CHEMBL1134612, “A structure-based design approach to the development of novel, reversible AChE inhibitors” (J Med Chem, 2001).
pIC50: −log10 of the molar value.

Molecular target: Acetylcholinesterase (Torpedo californica, UniProt P04058)
Sequence (P04058 whole entry): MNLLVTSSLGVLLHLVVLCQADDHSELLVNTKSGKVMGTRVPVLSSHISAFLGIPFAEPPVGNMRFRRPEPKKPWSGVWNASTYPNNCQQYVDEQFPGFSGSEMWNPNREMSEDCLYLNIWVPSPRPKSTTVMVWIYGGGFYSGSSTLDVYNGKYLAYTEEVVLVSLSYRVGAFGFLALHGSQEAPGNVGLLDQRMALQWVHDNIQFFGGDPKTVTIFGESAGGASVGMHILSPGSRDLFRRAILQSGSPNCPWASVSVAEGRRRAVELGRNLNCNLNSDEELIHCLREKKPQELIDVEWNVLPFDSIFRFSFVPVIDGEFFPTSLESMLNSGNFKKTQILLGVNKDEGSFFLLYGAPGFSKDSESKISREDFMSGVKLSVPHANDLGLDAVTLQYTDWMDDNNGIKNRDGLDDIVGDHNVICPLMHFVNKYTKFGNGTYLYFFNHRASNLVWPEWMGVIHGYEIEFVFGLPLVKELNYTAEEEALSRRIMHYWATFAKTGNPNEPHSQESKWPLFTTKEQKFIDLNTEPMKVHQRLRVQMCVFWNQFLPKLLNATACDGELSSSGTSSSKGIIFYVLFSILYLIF
Description: Inhibition of activity against Torpedo Ray acetylcholinesterase.

| Compound | pIC50 |
| --- | --- |
| O=C(c1cccc(CBr)c1)C(F)(F)F | 6.44 |
| Cc1nc2cccc(F)c2c(N)c1CSCc1cccc(C(=O)C(F)(F)F)c1 | 8.52 |
| Cc1nc2cccc(Cl)c2c(N)c1COCc1cccc(C(=O)C(F)(F)F)c1 | 8.29 |
| O=C(c1ccc(CNc2c3c(nc4cccc(Cl)c24)CCCCC3)s1)C(F)(F)F | 7.92 |
| Nc1c2c(nc3cccc(Cl)c13)CCCCC2 | 8.62 |
| Cc1nc2ccccc2c(N)c1COCc1cccc(C(=O)C(F)(F)F)c1 | 8.52 |
| Cc1nc2cccc(F)c2c(N)c1COCc1cccc(C(=O)C(F)(F)F)c1 | 8.42 |
| CCOC(=O)c1c(C)nc2cccc(F)c2c1N | 5.59 |
| Cc1nc2cccc(F)c2c(N)c1COCc1ccccc1 | 5.70 |
| Cc1nc2cccc(Cl)c2c(N)c1CNC1(C(F)(F)F)CCC(=O)O1 (stereo unspecified) | 5.14 |
| Cc1nc2cccc(F)c2c(N)c1CSC1(C(F)(F)F)CCCO1 (stereo unspecified) | 7.74 |
| Cc1nc2cccc(F)c2c(N)c1CN | 5.72 |
| Cc1nc2cccc(F)c2c(N)c1CSCc1cccc(C(O)C(F)(F)F)c1 (stereo unspecified) | 4.96 |
| OC(O)(CCCCCNc1c2c(nc3cccc(Cl)c13)CCCCC2)C(F)(F)F | 7.44 |
| Cc1nc2cccc(F)c2c(N)c1CNC1(C(F)(F)F)CCC(=O)O1 (stereo unspecified) | 4.85 |
| CC(=O)c1cccc(CSCc2c(C)nc3cccc(F)c3c2N)c1 | 4.82 |
